# Values quoted from earlier work in patent US20210139999A1, “PROGNOSTIC AND TREATMENT RESPONSE PREDICTIVE METHOD” (Cancer Research Technology Limited, priority 2018, published 2021).
# Tested on: renal cancer
# Conditions: 81 patients with response data, single agent arm
substance,measurement,value
Atezolizumab,responders,25%
